Article PMC11990670, “Exploring the Volatility, Phase Transitions, and Solubility Properties of Five Halogenated Benzaldehydes” (Molecules, 2025)
Marks after values point to notes of the source that are not given here.

How the values were obtained:
[1] = Vapor pressures of crystalline and liquid phases, static method with capacitance diaphragm gauge; assay type: physicochemical
Description: A previously described and tested static apparatus was used to measure the vapor pressures of the condensed phases (both crystalline and liquid) of the five compounds studied. This installation employs MKS capacitance diaphragm absolute gauges, operating at self-regulated constant temperatures. Our lab is equipped with three pressure gauges. Gauge I, a Baratron 631A01TBEH (MKS instruments, Andover, MA, USA) (Tgauge = 423 K), measures pressures in the range of 0.5 to 1.3 × 10^2 Pa and operates within a temperature range of 253 to 413 K. Gauge II, the instrument used in this study, is a Baratron 631A11TBFP (MKS instruments, Andover, MA, USA) (Tgauge = 473 K), capable of measuring pressures from 0.5 to 1.3 × 10^3 Pa within a temperature range of 253 to 433 K and gauge III, a Baratron 631D02T8FP (MKS instruments, Andover, MA, USA) (Tgauge = 473 K), designed to measure pressures between 0.5 Pa and 2.6 × 10^2 Pa, also within a temperature range of 253 to 433 K. The temperatures of the samples were measured using a Pt100 platinum resistance thermometer, calibrated by comparison with a standard platinum resistance thermometer (SPRT: Tinsley Precision Instruments Ltd, London, England). To prevent vapor condensation, the tubing connecting the cell containing the condensed sample to the pressure gauge is maintained at a temperature higher than that of the sample but lower than that of the gauge. The uncertainty in temperature measurements is estimated to be u(T/K) = ±0.01, and the expanded uncertainties (0.95 confidence level, k = 2) in pressure measurements are given by the expression U(p/Pa) = 0.1 + 0.0050 (p/Pa) for the gauge used. Samples were thoroughly degassed before starting the vapor pressure measurements, ensuring consistent readings at specific temperatures and eliminating any residual volatile substances, including water.

[2] = Gibbs energy of hydration and Henry's law volatility constant calculated from sublimation and solubility data; details: 25 °C
Protocol: (§1) The concentration was measured by absorbances at 260 nm for 4-chlorobenzaldehyde, 263 nm for 4-bromobenzaldehyde and 2,4-dichlorobenzaldehyde, 297 nm for 2,6-dichlorobenzaldehyde, and 306 nm for 2,3-dichlorobenzaldehyde, using a Cary-60 UV–vis (Agilent) spectrophotometer. X-ray diffraction (XRD) and differential scanning calorimetry of residual solids were used to identify the eventual phase transformations. The purified samples of each compound studied were used for all experimental determinations, including the solubility measurements. After reaching the equilibrium, the residual solid was dried and analyzed using both DSC and XRD. The melting properties obtained from DSC were compared with those of the original purified sample, following the same procedure for the XRD analysis. […] As an example, the supporting information includes two thermograms and two XRD patterns for 2,4-dichlorobenzaldehyde (Figures S1 and S2). […] Equation (4) was derived from Equation (5), which is widely applicable to the solubility of solids.(4) ΔhydrGm°/kJ·mol^−1=9.17−5.71·log10(Scr/mol·m^−3)−ΔcrgGm°/kJ·mol^−1 (5) S=p^°/RTexpΔcrgGm°+ΔhydrGm°/−RT
The standard states in Equation (5) are p° = 1 × 10^5 Pa for ΔcrgGm° , c° = 1 mol·L^−1 for ΔhydrGm° and s° = 1 mol·m^−3 for solubility. Using the experimental results of ΔhydrGm° , calculated through Equation (4), the values of Henry’s law volatility constants, KHpc, were determined in the logarithm form by Equation (6), that was adapted from Modarressi et al..

[3] = pH of the saturated aqueous solutions; assay type: physicochemical; details: saturated aqueous solution of the solubility experiment
Protocol: as §1
An excess amount of each compound was added to a known volume of water in triplicate. […] After stirring, the solid phase was allowed to settle for 2 h. The pH of the saturated solutions was measured using a Mettler Toledo (Greifensee, Switzerland) FiveEasy F20 pH Meter calibrated with standard aqueous solutions (pH 7.00 and 4.01 or 10.1). Those solutions were then filtered through a 0.22 μm syringe hydrophilic filter (13 mm, PTFE, Labfil, Zhejiang, China) and diluted to the required concentration. The concentration of the compounds, expressed in molarity, was measured by absorbances using a Cary-60 UV–vis spectrophotometer (Agilent Technologies, Santa Clara, CA, USA) at 298.15 K (single cell Peltier accessory, ±0.15 K). The results reported in Table 6 are averaged from at least three replicates. Calibration was performed using solutions of known concentrations of each substance in water. These solutions were prepared by adding a precise mass of the substance and a specific volume of the solvent to a flask, then mixing until the substance was fully dissolved. The absorbance of these solutions was measured, and calibration curves were created.

O=Cc1c(Cl)cccc1Cl [2,6-Dichlorobenzaldehyde]
vapor pressure p ([1]; crystalline phase, T = 292.72 K): 0.50 Pa
vapor pressure p ([1]; crystalline phase, T = 294.67 K): 0.63 Pa
vapor pressure p ([1]; crystalline phase, T = 296.72 K): 0.81 Pa
vapor pressure p ([1]; crystalline phase, T = 298.56 K): 1.00 Pa
vapor pressure p ([1]; crystalline phase, T = 300.60 K): 1.28 Pa
vapor pressure p ([1]; crystalline phase, T = 302.53 K): 1.58 Pa
vapor pressure p ([1]; crystalline phase, T = 304.58 K): 1.97 Pa
vapor pressure p ([1]; crystalline phase, T = 306.53 K): 2.49 Pa
vapor pressure p ([1]; crystalline phase, T = 308.53 K): 3.07 Pa
vapor pressure p ([1]; crystalline phase, T = 310.48 K): 3.74 Pa
vapor pressure p ([1]; crystalline phase, T = 312.49 K): 4.61 Pa
vapor pressure p ([1]; crystalline phase, T = 314.41 K): 5.68 Pa
vapor pressure p ([1]; crystalline phase, T = 316.45 K): 7.02 Pa
vapor pressure p ([1]; crystalline phase, T = 318.40 K): 8.62 Pa
vapor pressure p ([1]; crystalline phase, T = 320.45 K): 10.52 Pa
vapor pressure p ([1]; crystalline phase, T = 322.40 K): 12.77 Pa
vapor pressure p ([1]; crystalline phase, T = 324.42 K): 15.66 Pa
vapor pressure p ([1]; crystalline phase, T = 326.34 K): 18.87 Pa
vapor pressure p ([1]; crystalline phase, T = 328.34 K): 22.67 Pa
vapor pressure p ([1]; crystalline phase, T = 330.30 K): 27.33 Pa
vapor pressure p ([1]; crystalline phase, T = 332.29 K): 32.89 Pa
vapor pressure p ([1]; crystalline phase, T = 334.27 K): 39.51 Pa
vapor pressure p ([1]; crystalline phase, T = 336.23 K): 46.91 Pa
vapor pressure p ([1]; crystalline phase, T = 338.20 K): 56.28 Pa
vapor pressure p ([1]; liquid phase, T = 344.17 K): 91.46 Pa
vapor pressure p ([1]; liquid phase, T = 346.13 K): 103.7 Pa
vapor pressure p ([1]; liquid phase, T = 348.09 K): 118.4 Pa
vapor pressure p ([1]; liquid phase, T = 350.07 K): 133.6 Pa
vapor pressure p ([1]; liquid phase, T = 352.10 K): 151.3 Pa
vapor pressure p ([1]; liquid phase, T = 354.09 K): 168.0 Pa
vapor pressure p ([1]; liquid phase, T = 356.04 K): 190.2 Pa
vapor pressure p ([1]; liquid phase, T = 358.03 K): 212.4 Pa
vapor pressure p ([1]; liquid phase, T = 359.98 K): 239.9 Pa
vapor pressure p ([1]; liquid phase, T = 361.98 K): 266.2 Pa
vapor pressure p ([1]; liquid phase, T = 363.92 K): 297.7 Pa
vapor pressure p ([1]; liquid phase, T = 365.92 K): 333.0 Pa
vapor pressure p ([1]; liquid phase, T = 367.87 K): 372.6 Pa
vapor pressure p ([1]; liquid phase, T = 369.87 K): 415.4 Pa
vapor pressure p ([1]; liquid phase, T = 371.82 K): 456.8 Pa
vapor pressure p ([1]; liquid phase, T = 373.82 K): 506.8 Pa
vapor pressure p ([1]; liquid phase, T = 375.77 K): 559.6 Pa
vapor pressure p ([1]; liquid phase, T = 377.79 K): 620.3 Pa
vapor pressure p ([1]; liquid phase, T = 379.71 K): 682.3 Pa
vapor pressure p ([1]; liquid phase, T = 381.71 K): 755.4 Pa
vapor pressure p ([1]; liquid phase, T = 383.62 K): 827.1 Pa
vapor pressure p ([1]; supercooled liquid, T = 334.28 K): 48.38 ^d Pa
vapor pressure p ([1]; supercooled liquid, T = 335.87 K): 53.45 ^d Pa
vapor pressure p ([1]; supercooled liquid, T = 338.22 K): 62.48 ^d Pa
vapor pressure p ([1]; supercooled liquid, T = 340.16 K): 71.24 ^d Pa
vapor pressure p ([1]; supercooled liquid, T = 342.24 K): 81.73 ^d Pa
Gibbs energy of hydration ΔhydrGm° ([2]; calculated by Equation (4)): -19.8 kJ/mol
log10(KHpc/kPa·m^3·mol^−1) Henry's law volatility constant ([2]; calculated by Equation (6)): −3.07
KHpc×10^3 Henry's law volatility constant ([2]; value is KHpc multiplied by 10^3): 0.851 kPa·m^3·mol^−1
pH of the saturated solution [3]: 6.39
